Measurements taken from ChEMBL document CHEMBL4715916, “Synthesis and biological evaluation of a ring analogs of the selective CB2 inverse agonist SMM-189” (Bioorg Med Chem, 2021).
Active and inactive are the calls of the source. The calls are words filed in the database; no cut-off is given here.

Columns and labels:
Cannabinoid receptor 1 [1] = target: T1, Cannabinoid receptor 1 (Homo sapiens, UniProt P21554); assay: Inverse agonist activity at cannabinoid CB1 receptor in human U2OS cells assessed as induction of beta-arrestin recruitment using CCF4/AM as substrate preincubated for 5 hrs followed by substrate addition and measured after 2 hrs by Tango assay; format: cell-based; conditions: time 7.0 hrs
T1 sequence (P21554 whole entry): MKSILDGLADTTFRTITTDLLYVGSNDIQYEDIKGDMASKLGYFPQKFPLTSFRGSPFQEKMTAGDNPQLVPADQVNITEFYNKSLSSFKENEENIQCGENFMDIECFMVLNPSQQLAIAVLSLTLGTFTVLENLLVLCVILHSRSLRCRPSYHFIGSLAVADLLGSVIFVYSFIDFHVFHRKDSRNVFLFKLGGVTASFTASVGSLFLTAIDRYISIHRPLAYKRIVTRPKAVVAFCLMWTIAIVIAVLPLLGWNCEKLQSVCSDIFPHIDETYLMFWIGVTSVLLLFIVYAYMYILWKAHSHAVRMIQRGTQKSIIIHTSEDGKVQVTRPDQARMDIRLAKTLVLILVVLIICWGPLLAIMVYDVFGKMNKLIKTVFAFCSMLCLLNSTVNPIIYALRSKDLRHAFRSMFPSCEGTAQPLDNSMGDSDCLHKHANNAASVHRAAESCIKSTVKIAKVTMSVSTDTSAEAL

Cannabinoid receptor 1 [2] = target: T1, Cannabinoid receptor 1; assay: Inverse agonist activity at cannabinoid CB1 receptor in human U2OS cells assessed as emission ratio using CCF4/AM as substrate preincubated for 5 hrs followed by substrate addition and measured after 2 hrs by Tango assay; format: cell-based; conditions: time 7.0 hrs
Cannabinoid receptor 1 [3] = target: T1, Cannabinoid receptor 1; assay: Inverse agonist activity at human recombinant cannabinoid CB1 receptor expressed in HEK cells transfected with CNG assessed as increase in cAMP level measured up to 1 hr by ACTOne membrane potential dye based assay; format: functional, cell-based; conditions: time hrs <=1
C8-B4 [4] = assay: Effect on LPS-stimulated microglia polarization in mouse C8-B4 cells assessed as decrease in CD68 expression at 20 uM after 24 hrs by cell polarization assay; format: functional, cell-based
Cannabinoid receptor 2 [5] = target: T2, Cannabinoid receptor 2 (Homo sapiens, UniProt P34972); assay: Displacement of [3H]-CP55940 from human recombinant cannabinoid CB2 receptor expressed in HEK cell membranes incubated for 1.5 hrs by liquid scintillation counting method; design: species or system Cell membrane
T2 sequence (P34972 whole entry): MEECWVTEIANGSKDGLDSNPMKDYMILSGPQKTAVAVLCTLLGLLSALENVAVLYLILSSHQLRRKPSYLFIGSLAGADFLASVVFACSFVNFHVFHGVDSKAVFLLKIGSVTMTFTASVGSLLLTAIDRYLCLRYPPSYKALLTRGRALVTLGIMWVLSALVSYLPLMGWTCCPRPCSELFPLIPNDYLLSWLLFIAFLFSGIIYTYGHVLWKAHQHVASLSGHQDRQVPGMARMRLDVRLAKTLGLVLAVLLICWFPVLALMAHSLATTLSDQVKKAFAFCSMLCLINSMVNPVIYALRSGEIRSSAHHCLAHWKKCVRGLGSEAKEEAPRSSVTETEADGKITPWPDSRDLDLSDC

IMhu [6] = assay: Induction of morphological changes in LPS-induced human IMhu cells assessed as small cell body at 10 uM after 24 hrs by DAPI/Phalloidin staining based fluorescence microscopic analysis; format: functional
Cannabinoid receptor 2 [7] = target: T2, Cannabinoid receptor 2; assay: Inverse agonist activity at human recombinant cannabinoid CB2 receptor expressed in HEK cells transfected with CNG assessed as increase in cAMP level measured up to 1 hr by ACTOne membrane potential dye based assay; format: functional, cell-based
Cannabinoid receptor 1 [8] = target: T1, Cannabinoid receptor 1; assay: Inverse agonist activity at human recombinant cannabinoid CB1 receptor expressed in HEK cells transfected with CNG assessed as increase in cAMP level measured up to 1 hr by ACTOne membrane potential dye based assay relative to control; format: functional, cell-based; conditions: time hrs <=1
Homo sapiens = species on record: Homo sapiens; assay: Selectivity ratio of Ki for displacement of [3H]-CP55940 from human recombinant cannabinoid CB1 receptor expressed in HEK cell membranes to displacement of [3H]-CP55940 from human recombinant cannabinoid CB2 receptor expressed in HEK cell membranes
IMhu [9] = assay: Induction of morphological changes in LPS-induced human IMhu cells assessed as elongated projection formation at 10 uM after 24 hrs by DAPI/Phalloidin staining based fluorescence microscopic analysis; format: functional
C8-B4 [10] = assay: Effect on LPS-stimulated microglia polarization in mouse C8-B4 cells assessed as increase in CD204 expression at 20 uM after 24 hrs by cell polarization assay; format: functional, cell-based
Cannabinoid receptor 2 [11] = target: T2, Cannabinoid receptor 2; assay: Inverse agonist activity at human recombinant cannabinoid CB2 receptor expressed in HEK cells transfected with CNG assessed as increase in cAMP level measured up to 1 hr by ACTOne membrane potential dye based assay relative to control; format: functional, cell-based; conditions: time hrs <=1
IMhu [12] = assay: Effect on LPS-stimulated microglia polarization in human IMhu cells assessed as decrease in CD68 expression at 35 uM after 24 hrs by cell polarization assay; format: functional, cell-based
IMhu [13] = assay: Induction of morphological changes in LPS-induced human IMhu cells assessed as ramified cell at 10 uM after 24 hrs by DAPI/Phalloidin staining based fluorescence microscopic analysis; format: functional
C8-B4 [14] = assay: Effect on LPS-stimulated microglia polarization in mouse C8-B4 cells assessed as decrease in CD16/32 expression at 20 uM after 24 hrs by cell polarization assay; format: functional, cell-based
IMhu [15] = assay: Effect on LPS-stimulated microglia polarization in human IMhu cells assessed as increase in CD206 expression at 35 uM after 24 hrs by cell polarization assay; format: functional, cell-based
C8-B4 [16] = assay: Effect on LPS-stimulated microglia polarization in mouse C8-B4 cells assessed as increase in CD206 expression at 20 uM after 24 hrs by cell polarization assay; format: functional, cell-based
Cannabinoid receptor 2 [17] = target: T2, Cannabinoid receptor 2; assay: Inverse agonist activity at cannabinoid CB2 receptor in human U2OS cells assessed as emission ratio using CCF4/AM as substrate preincubated for 5 hrs followed by substrate addition and measured after 2 hrs by Tango assay; format: cell-based; conditions: time 7.0 hrs
IMhu [18] = assay: Cytoprotective activity in human IMhu cells assessed as reduction in LPS-induced ROS generation at 10 uM after 50 to 1440 mins by fluorescence based assay; format: functional, cell-based; conditions: time 50-1440 min
IMhu [19] = assay: Effect on LPS-stimulated microglia polarization in human IMhu cells assessed as decrease in CD16 expression at 35 uM after 24 hrs by cell polarization assay; format: functional, cell-based
IMhu [20] = assay: Inhibition of cell migration in LPS-induced human IMhu cells at 10 uM after 24 hrs by scratch assay; format: functional
IMhu [21] = assay: Effect on LPS-stimulated microglia polarization in human IMhu cells assessed as increase in CD204 expression at 35 uM after 24 hrs by cell polarization assay; format: functional, cell-based
Cannabinoid receptor 2 [22] = target: T2, Cannabinoid receptor 2; assay: Inverse agonist activity at cannabinoid CB2 receptor in human U2OS cells assessed as induction of beta-arrestin recruitment using CCF4/AM as substrate preincubated for 5 hrs followed by substrate addition and measured after 2 hrs by Tango assay; format: cell-based
Cannabinoid receptor 1 [23] = target: T1, Cannabinoid receptor 1; assay: Displacement of [3H]-CP55940 from human recombinant cannabinoid CB1 receptor expressed in HEK cell membranes incubated for 1.5 hrs by liquid scintillation counting method; design: species or system Cell membrane

Structure (SMILES) | pEC50 (Cannabinoid receptor 1 [1]) | Ratio (Cannabinoid receptor 1 [2]) | pEC50 (Cannabinoid receptor 1 [3]) | Ki (Cannabinoid receptor 2 [5]) [nM] | EC50 (Cannabinoid receptor 2 [7]) [nM] | Emax (Cannabinoid receptor 1 [8]) | Ratio Ki (Homo sapiens) | Emax (Cannabinoid receptor 2 [11]; filed as inverse agonist) [%] | Ratio (Cannabinoid receptor 2 [17]; filed as inverse agonist) | EC50 (Cannabinoid receptor 2 [22]) [nM] | Ki (Cannabinoid receptor 1 [23]) [nM] | pEC50 (Cannabinoid receptor 2 [7]; time hrs <=1) | Emax (Cannabinoid receptor 2 [11]) | also measured
Cc1ccc(Cn2nc(C(=O)N[C@@H]3C(C)(C)[C@@H]4CC[C@@]3(C)C4)cc2-c2ccc(Cl)c(C)c2)cc1 | inactive | – | – | – | – | – | – | – | – | – | – | – | – | –
O=C(c1cc(O)c(-c2cccc(C(F)(F)F)c2)c(O)c1)c1cccs1 | inactive | inactive | inactive | 154 | 38.9 | inactive | > 64.9 | 57.2 | 1.19 | 8510 | > 10000 | – | – | Activity (C8-B4 [4]): Active; Activity (IMhu [6]): Active; Activity (IMhu [9]): Active; Activity (C8-B4 [10]): Active; Activity (IMhu [12]): Active; Activity (IMhu [13]): Active; Activity (C8-B4 [14]): Active; Activity (IMhu [15]): Active; Activity (C8-B4 [16]): Active; Activity (IMhu [18]): Active; Activity (IMhu [19]): Active; inhibition (IMhu [20]): Active; Activity (IMhu [21]): Active
O=C(c1ccccc1)c1cc(O)c(-c2ccncc2)c(O)c1 | – | – | inactive | > 10000 | – | inactive | – | – | – | – | > 10000 | inactive | inactive | –
O=C(c1cc(O)c(-c2cc(Cl)ccc2Cl)c(O)c1)c1cccs1 | inactive | inactive | inactive | 447 | 141 | inactive | > 22.4 | 61 | 1.46 | > 10000 | > 10000 | – | – | –
O=C(c1ccccc1)c1cc(O)c(-c2cccc(C(F)(F)F)c2)c(O)c1 | inactive | inactive | inactive | 204 | 240 | inactive | > 49 | 66 | 1.41 | 3470 | > 10000 | – | – | –
O=C(c1cc(O)c(-c2cc(C(F)(F)F)cc(C(F)(F)F)c2)c(O)c1)c1cccs1 | inactive | inactive | inactive | 187 | 676 | inactive | 20 | 49.7 | 0.94 | 1290 | 3740 | – | – | –
O=C(c1ccccc1)c1cc(O)c(-c2cc(C(F)(F)F)cc(C(F)(F)F)c2)c(O)c1 | inactive | inactive | inactive | 215 | 372 | inactive | 8.86 | – | 0.91 | 1410 | 1900 | – | 22.9% | –
Cc1cccc(-c2c(O)cc(C(=O)c3cccs3)cc2O)c1 | inactive | inactive | inactive | 975 | 200 | inactive | 9.77 | 51.7 | 2.68 | 6170 | 9530 | – | – | –
O=C(c1ccccc1)c1cc(O)c(-c2cc(Cl)ccc2Cl)c(O)c1 | inactive | inactive | inactive | 233 | 363 | inactive | > 42.9 | 66.5 | 1.03 | 6030 | > 10000 | – | – | –
O=C(c1ccccc1)c1cc(O)c(-c2cc(F)cc(F)c2)c(O)c1 | inactive | inactive | inactive | 1630 | 1700 | inactive | 0.66 | 63 | 2.22 | 8910 | 1080 | – | – | –
Cc1cccc(-c2c(O)cc(C(=O)c3ccccc3)cc2O)c1 | inactive | inactive | inactive | 320 | 1660 | inactive | 12.6 | 40.3 | 2.3 | > 10000 | 4010 | – | – | –
O=C(c1ccccc1)c1cc(O)c(-c2ccnc(F)c2)c(O)c1 | – | – | inactive | > 10000 | – | inactive | – | – | – | – | > 10000 | inactive | inactive | –
O=C(c1ccccc1)c1cc(O)c(-c2ccc3c(c2)OCO3)c(O)c1 | – | – | inactive | > 10000 | – | inactive | – | – | – | – | > 10000 | – | inactive | Emax (Cannabinoid receptor 2 [7]; time hrs <=1): inactive
O=C(c1ccccc1)c1cc(O)c(-c2cc(Cl)cc(Cl)c2)c(O)c1 | inactive | inactive | inactive | – | – | inactive | 39.4 | 54.8 | 0.66 | – | – | – | – | –
O=C(c1ccccc1)c1cc(O)c(-c2cccc(CO)c2)c(O)c1 | – | – | inactive | 2490 | – | inactive | > 4 | – | – | – | > 10000 | inactive | inactive | –
N#Cc1cc(-c2c(O)cc(C(=O)c3ccccc3)cc2O)ccc1F | inactive | inactive | inactive | 1840 | 2820 | inactive | > 5.44 | 52.3 | – | – | > 10000 | – | – | Ratio (Cannabinoid receptor 2 [17]): inactive; pEC50 (Cannabinoid receptor 2 [22]; time 7.0 hrs): inactive
O=C(c1ccccc1)c1cc(O)c(-c2ccnc(Cl)c2)c(O)c1 | – | – | inactive | > 10000 | – | inactive | – | – | – | – | > 10000 | inactive | inactive | –
O=C(c1cc(O)c(-c2cccc(CO)c2)c(O)c1)c1cccs1 | – | – | inactive | 8380 | – | inactive | > 1.19 | – | – | – | > 10000 | inactive | inactive | –
O=C(c1ccccc1)c1cc(O)c(-c2ccsc2)c(O)c1 | – | – | inactive | > 10000 | – | inactive | – | – | – | – | > 10000 | inactive | inactive | –
O=C(c1ccccc1)c1cc(O)c(-c2ccc3c(c2)OCCO3)c(O)c1 | – | – | inactive | 4740 | 4900 | inactive | > 2.11 | 49 | – | – | > 10000 | – | – | –
O=C(c1ccccc1)c1cc(O)c(-c2ccoc2)c(O)c1 | – | – | inactive | 1330 | 2750 | inactive | > 7.53 | – | – | – | > 10000 | – | -18.5% | –
O=C(c1cc(O)c(-c2ccncc2)c(O)c1)c1cccs1 | – | – | inactive | > 10000 | – | inactive | – | – | – | – | > 10000 | inactive | inactive | –
